# Tested on: MELANODERM™ MEL-300B tissue constructs
# Assay: Overall Melanin Level Assay (MELANODERM skin analog, Solvable Melanin Assay)
# Assay type: cell-based, human
# Details: for Absorbance (relative melanin content): MEL-300B tissue (donors with black complexion), 25 μl applied every other day for 10 days, read at 490 nm, 2% kojic acid solution, 0.4% hydroquinone solution, formulation of Table 1, untreated control 0.927
# Method: This bioassay was used to analyze the effect of compounds on melanogenesis. […] The endpoint of this assay was spectrophotometric measurement of melanin production and cellular viability of tissue constructs derived from donors. The skin lightening efficacy of the formulation in Table 1 was evaluated using a skin analog sold by MatTek Corp. under the tradename MELANODERM™. Tissue constructs derived from donors with a black complexion (MELANODERM™ MEL-300B) were used. Tissue constructs derived from people with a black complexion have melanocytes with increased pigmentation versus those of people with a white or brown complexion melanocytes. MEL-300B tissue inserts were placed into the wells of 12-well plates filled with maintenance medium and pre-equilibrated in a humidified 37° C., 5% CO2 incubator overnight prior to applying treatment. After removal of the pre-equilibration medium, 25 μl of the formulation of Table 1 was applied directly to the MEL-300B stratum corneum by pipetting with a positive displacement pipette into the cell culture insert which contained the MEL-300B tissue inserts. Treatments were done in triplicates. 25 μl of 2% Kojic Acid (KA) solution and 25 μl of 0.4% Hydroquinone (HQ) solution were used as positive controls and 25 μl of sterile ultrapure water served as negative control. The MEL-300B tissue inserts were treated every other day for 10 consecutive days. Maintenance medium was replaced every other day with fresh medium. After treatment, the MEL-300B tissue inserts were submerged in phosphate buffered saline (PBS) for 10 minutes to remove any residual phenol red and test article from the tissue. After the MEL-300B tissue inserts were rinsed off, viability was measured on one of the tissues using the MTT viability assay (MTT Kit part #: MTT-100). The relative melanin content was measured using the Solvable Melanin Assay. Briefly, the tissues were removed from the inserts using fine-point forceps. Each tissue was blotted dry and placed in a 1.7 ml microfuge tube. […] Absorbance of the plate was read at 490 nm.
Compound,"effect on melanin compared to untreated control / positive control (in words) (MEL-300B tissue (dark skin model), topical application)",Absorbance (relative melanin content)
Oc1ccc(O)cc1 [Hydroquinone],increase melanin compared to the untreated control,1.222
"O=c1cc(CO)occ1O [Kojick Acid, Kojic Acid]",,0.629

# Source: patent US11779532B2, “Topical compositions and methods” (Mary Kay Inc., priority 2020, dated 2023)
